Assay results published in patent US20100159012A1, “Conjugates of Therapeutically Active Compounds” (priority 2005, published 2010).

Experiments:
[1] = system: RAW 264.7 cells; assay: Cytotoxicity by 3H-thymidine incorporation in murine RAW 264.7 cells
Protocol: (§1) The final aldehyde concentrations in the test were 0.01-34 μmol/mL.
(§2) The cytotoxicity of dextran derivatives was evaluated in murine RAW 264.7 cells, an internationally recognized cell line for examination of drug effects.
(§3) Growth inhibition was estimated by the ^3H-thymidine incorporation method. Cells were cultured in flat-bottom flasks at 37° C. Before each experiment the cells were washed and removed by trypsin treatment or scraped from the flask bottom, and an appropriate volume was centrifuged, resuspended, and diluted in growth medium to the desired cell concentration. […] By use of an automated dispenser, 200 μL of cell suspension was added to each well of a microtiter plate. After incubation overnight, the appropriate drug concentration, in triplicate, was added to test wells. Drug-free medium was used as control. ^3H-Thymidine (0.5 μCi) in 20 μL of medium was added the next day, and the plate was harvested and read by liquid scintillation counter (LKB, Finland) after an additional 24 h. The percent growth inhibition of the cells by the drug tested was calculated as [100−(count with drug/control count)×100].
(§4) Dextran with 50% oxidation was used as a positive toxicity control.
(§5) Drug effect and the IC50 were defined as previously described.

[2] = system: Leishmania donovani IS promastigotes; assay: In vitro activity against Leishmania donovani promastigotes (3H-thymidine incorporation); assay type: cell-based
Protocol: The in vitro antiparasitic activity was evaluated against Leishmania donovani IS promastigotes. This strain, isolated from a patient in Sudan, was received from the International Reference Center of the Kuvin Center for Infectious Diseases in the Hebrew University of Jerusalem.
Serial dilutions of the tested agents were prepared in RPMI 1640 growth medium. The final AmB concentration in the test ranged from 0.2 to 6 μg/mL. Wells containing drug-free medium served as control. […] Briefly, 96-well plates were seeded with 60,000 promastigotes/well in 200 μL of medium, and test solutions were added 3 h later. After 24 h of incubation, 0.5 μCi/well ^3H-thymidine (in 10% FCS medium) was added, and the cultures were harvested after an additional 24 h. During the experiment the cells were incubated at 25° C. in air. The drug effect and the IC50 of the conjugates were estimated as described before (Example 7).

[3] = system: Sheep erythrocytes; assay: Hemolysis evaluated visually after 1 h incubation at 37° C.; assay type: cell-based; conditions: visual
[4] = system: RAW 264.7 cells (growth, thymidine incorporation); assay: Cytotoxicity by 3H-thymidine incorporation in murine RAW 264.7 cells; conditions: mouse, RAW 264.7 cells
Protocol: as §1, §2, §3, §4, §5

[5] = In vitro release of conjugated drug into solution/buffer; assay type: physicochemical; conditions: after 12 hours in buffer at pH7.4 at 37° C.
Protocol: About 10% of the conjugated drug was released after 12 hours in a buffer at pH7.4 at 37° C.

[6] = system: Staphylococcus Aureus and E. Coli; assay: Antimicrobial activity, filter paper disc on seeded agar plate; assay type: cell-based; conditions: 24 hours at 37° C.; 6 mm filter paper; equivalent amounts of drug
Protocol: The antimicrobial activity of these conjugates was determined as follows: Saline solutions of equivalent amounts of the drug in free form or the imine AG conjugate were absorbed onto a circular filter paper (6 mm in diameter) and placed on a seeded agar plate with Staphylococcus Aureus (10^5/ml) and E. Coli incubated for 24 hours at 37° C.

C[C@@H]1[C@H](O)[C@@H](C)/C=C/C=C/C=C/C=C/C=C/C=C/C=C/[C@H](O[C@@H]2O[C@H](C)[C@@H](O)[C@H](N)[C@@H]2O)C[C@@H]2O[C@](O)(C[C@@H](O)C[C@@H](O)[C@H](O)CC[C@@H](O)C[C@@H](O)CC(=O)O[C@H]1C)C[C@H](O)[C@H]2C(=O)O [Free AmB, Amphotericin B]
toxicity to cells ([1]; AmB and dextran-AmB conjugates, equivalent AmB amounts): extremely toxic
Toxicity IC50 ([1]; murine RAW 264.7 cell line, 3H-thymidine incorporation): 9 μgAmB/ml
toxicity/activity to parasites ([2]; AmB and dextran-AmB conjugates): extremely toxic
Antiparasitic activity IC50 ([2]; Leishmania donovani, 3H-thymidine incorporation): 0.05 μgAmB/ml
Hemolysis [3]: 16 μgAmB/ml

O=CCCCC=O [Glutaraldehyde]
IC50 at 48 h [4]: < 0.15 µg/mL

Native Dextran
IC50 (in vitro cytotoxicity of modified dextran) [1]: >5000 µg/mL

Somatostatin-Arabinogalactan Ethanolamine Conjugate: somatostatin conjugated to 32% oxidized AG, reacted with excess ethanolamine
conjugated drug released [5]: About 10%

gentamicin
inhibition zone [6]: > 20 mm
